# ChEMBL document CHEMBL1201862, “PubChem BioAssay data set” (2004)
# The source made the active and inactive calls.
# What was measured:
# [1] = molecular target: Neurotensin receptor type 1 (Homo sapiens, UniProt P30989); assay type: functional;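 further: Image-based confirmatory dose-response assay measuring agonist activity at NTR1; NTR1-expressing U2OS osteosarcoma cells imaged for beta-arrestin GFP spot formation; agonist potency where compounds increase beta-arrestin recruitment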
# [2] = molecular target: Prothrombin (Homo sapiens, UniProt P00734); assay: Thrombin 1536 HTS Dose Response Confirmation. [Related pubchem assays: 1046 (Thrombin 1536 HTS; hits were confirmed in this assay)]; assay type: functional
# [3] = molecular target: T1, Calpain-2 catalytic subunit (Sus scrofa, UniProt P43367); assay: pig calpain II inhibitor potency, dose response, biochemical, fluorogenic peptide substrate (AID 1420); assay type: functional
# T1 sequence (P43367 whole entry): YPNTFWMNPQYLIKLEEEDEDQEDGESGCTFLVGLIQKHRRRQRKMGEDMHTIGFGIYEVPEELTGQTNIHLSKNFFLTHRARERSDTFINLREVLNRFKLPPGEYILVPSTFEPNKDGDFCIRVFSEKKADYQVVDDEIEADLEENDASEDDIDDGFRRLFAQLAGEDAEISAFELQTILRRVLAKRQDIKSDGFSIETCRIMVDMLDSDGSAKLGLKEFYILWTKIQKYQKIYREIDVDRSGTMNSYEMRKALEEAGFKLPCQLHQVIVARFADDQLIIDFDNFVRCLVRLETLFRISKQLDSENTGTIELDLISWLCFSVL
# [4] = molecular target: Hexokinase HKDC1 (Homo sapiens, UniProt Q2TB90); assay: HKDC1 hexokinase inhibitors, dose response, biochemical, W721R variant (AID 504729); assay type: functional
# [5] = molecular target: T2, Alkaline phosphatase, tissue-nonspecific isozyme (Homo sapiens, UniProt P05186)
# T2 sequence (P05186 whole entry): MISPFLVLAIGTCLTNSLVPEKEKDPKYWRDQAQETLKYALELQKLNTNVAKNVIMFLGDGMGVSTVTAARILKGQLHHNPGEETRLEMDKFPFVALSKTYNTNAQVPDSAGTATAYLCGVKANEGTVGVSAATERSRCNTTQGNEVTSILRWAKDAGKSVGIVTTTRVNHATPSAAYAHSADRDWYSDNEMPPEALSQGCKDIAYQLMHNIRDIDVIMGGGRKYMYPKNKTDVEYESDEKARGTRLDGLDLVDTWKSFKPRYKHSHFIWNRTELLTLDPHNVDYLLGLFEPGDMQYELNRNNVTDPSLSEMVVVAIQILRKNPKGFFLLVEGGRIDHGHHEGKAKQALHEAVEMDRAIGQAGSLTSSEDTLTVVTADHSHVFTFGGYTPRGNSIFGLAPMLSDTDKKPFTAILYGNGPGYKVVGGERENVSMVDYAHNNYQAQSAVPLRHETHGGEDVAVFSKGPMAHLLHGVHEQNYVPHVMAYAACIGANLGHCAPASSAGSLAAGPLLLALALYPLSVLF
# [6] = molecular target: Peroxisome proliferator-activated receptor gamma/Nuclear receptor corepressor 2 (Homo sapiens, UniProt P37231+Q9Y618); assay type: functional
# [7] = molecular target: Photoreceptor-specific nuclear receptor (Homo sapiens, UniProt Q9Y5X4); assay type: functional;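 further: potency for compounds that break the NR2E3 corepressor complex and count as activators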
# [8] = molecular target: Peroxisome proliferator-activated receptor gamma/Nuclear receptor coactivator 3 (Homo sapiens, UniProt P37231); assay: TR-FRET dose response biochemical High Throughput Screening assay for agonists of the steroid receptor coactivator 3 (SRC-3) recruitment by the peroxisome proliferator-activated receptor gamma (PPAR gamma): non-selective agonists. [Related pubchem assays: 1301 (Confirmation screen.), 1048 (Primary screen.)]; assay type: functional
# [9] = molecular target: Peroxisome proliferator-activated receptor gamma/Nuclear receptor coactivator 2 (Homo sapiens, UniProt P37231); assay: (§1) TR-FRET dose response biochemical High Throughput Screening assay for agonists of the steroid receptor coactivator 2 (SRC-2) recruitment by the peroxisome proliferator-activated receptor gamma (PPAR gamma): non-selective agonists. [Related pubchem assays: 1297, 1032 ]; assay type: functional
# [10] = molecular target: Peroxisome proliferator-activated receptor gamma/Nuclear receptor coactivator 1 (Homo sapiens, UniProt P37231); assay: as §1, with “1 (SRC-1)” for “2 (SRC-2)”, “assays (depositor defined):AID1300, AID1808, AID504735, AID631]” for “assays: 1297, 1032 ]”; assay type: protein assay
# [11] = molecular target: Cytochrome P450 2C19 (Homo sapiens, UniProt P33261); assay: Cytochrome panel assay with activity outcomes. Panel member name: p450-cyp2c19 Compounds with AC50 equal or less than 10 uM are considered active; assay type: functional; settings: read-out: AC50
# [12] = molecular target: Cyclin-dependent kinase 5/CDK5 activator 1 (Homo sapiens, UniProt Q00535); assay: CDK5/p35 kinase inhibitors, dose response, biochemical, cherry-picked samples, set 2 (AID 504545)
# [13] = molecular target: T3, Fructose-bisphosphate aldolase (Mycobacterium tuberculosis, UniProt P9WQA3); assay: Fluorescence-based biochemical high throughput dose response assay for inhibitors of the fructose-bisphosphate aldolase (FBA) of M. tuberculosis.; assay type: functional
# T3 sequence (P9WQA3 whole entry): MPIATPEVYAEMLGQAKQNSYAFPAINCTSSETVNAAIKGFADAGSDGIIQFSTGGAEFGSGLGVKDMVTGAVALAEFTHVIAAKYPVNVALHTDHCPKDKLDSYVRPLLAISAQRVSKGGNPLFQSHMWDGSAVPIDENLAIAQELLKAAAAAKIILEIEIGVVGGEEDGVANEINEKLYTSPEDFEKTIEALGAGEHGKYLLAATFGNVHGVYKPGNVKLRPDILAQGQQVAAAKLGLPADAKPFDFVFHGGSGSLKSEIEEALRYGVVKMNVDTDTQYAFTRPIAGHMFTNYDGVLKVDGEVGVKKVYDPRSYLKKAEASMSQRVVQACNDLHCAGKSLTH
# [14] = A small molecule screen for inhibitors of the PhoP region in Salmonella typhi (3) using purified and synthesized compounds. [Related pubchem assays (depositor defined):AID1850, AID1864, AID1985, AID2252, AID2384, AID2612, AID2811, AID449743, AID463179]; assay type: functional
# [15] = molecular target: G2/mitotic-specific cyclin-B1 (Homo sapiens, UniProt P14635); assay: G2/M cell cycle arrest in HeLa, late-stage follow-up, mechanism study for Wee1 degradation inhibitor project, FACS, panel member Cyclin B Degradation (AID 2088)
# [16] = molecular target: Wee1-like protein kinase (Homo sapiens, UniProt P30291); assay: G2/M cell cycle arrest in HeLa, late-stage follow-up, mechanism study for Wee1 degradation inhibitor project, FACS, panel member Wee1 Degradation (AID 2088)
# [17] = molecular target: T4, Tyrosine-protein phosphatase non-receptor type 7 (Homo sapiens, UniProt P35236); assay type: functional
# T4 sequence (P35236 whole entry): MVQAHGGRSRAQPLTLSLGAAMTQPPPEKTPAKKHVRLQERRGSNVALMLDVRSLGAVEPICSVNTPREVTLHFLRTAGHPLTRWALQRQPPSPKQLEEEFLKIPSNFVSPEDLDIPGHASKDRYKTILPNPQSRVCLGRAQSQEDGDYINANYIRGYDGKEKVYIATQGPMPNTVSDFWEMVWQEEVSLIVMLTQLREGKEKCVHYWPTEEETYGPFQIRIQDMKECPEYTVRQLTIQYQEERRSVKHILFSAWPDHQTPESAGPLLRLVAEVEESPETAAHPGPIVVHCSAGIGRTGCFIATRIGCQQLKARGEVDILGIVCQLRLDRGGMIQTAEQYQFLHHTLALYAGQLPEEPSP
# [18] = molecular target: Glyceraldehyde-3-phosphate dehydrogenase (Homo sapiens, UniProt P04406)
# [19] = molecular target: Phospholipase A2 (Homo sapiens, UniProt P04054); assay type: functional;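 further: confirmatory dose-response counterscreen on phospholipase A2, testing hits that came from an ultra-high-throughput screen for ATG4B inhibitors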
# [20] = molecular target: ORF 73 (Human herpesvirus 8, UniProt O40947); assay: inhibitors of C-LANA binding to LBS DNA, dose response, biochemical, fluorescence polarization, cherry-picked samples (AID 504725); parameters: species or system Human gammaherpesvirus 8;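 further: fluorescence polarization of a labeled DNA duplex reporting LANA DNA binding; potency is for inhibitors that block LANA binding to the DNA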
# [21] = molecular target: Heat shock cognate 71 kDa protein (Homo sapiens, UniProt P11142); assay: In Vitro Hsc70 Dose Response Fluorescence Polarization Assay. [Related pubchem assays: 1072 ]
# [22] = molecular target: T5, Dual specificity protein phosphatase 6 (Rattus norvegicus, UniProt Q64346)
# T5 sequence (Q64346 whole entry): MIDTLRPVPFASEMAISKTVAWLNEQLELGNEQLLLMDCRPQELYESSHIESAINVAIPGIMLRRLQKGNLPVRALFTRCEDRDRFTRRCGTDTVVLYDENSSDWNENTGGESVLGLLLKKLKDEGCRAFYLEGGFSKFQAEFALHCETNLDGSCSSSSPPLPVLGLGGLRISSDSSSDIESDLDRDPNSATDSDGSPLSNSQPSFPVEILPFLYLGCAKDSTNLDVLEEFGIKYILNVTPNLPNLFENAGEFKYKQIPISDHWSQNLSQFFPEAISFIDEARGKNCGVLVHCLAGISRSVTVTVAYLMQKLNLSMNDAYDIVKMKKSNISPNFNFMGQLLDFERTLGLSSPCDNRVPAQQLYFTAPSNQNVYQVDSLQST
# [23] = molecular target: T6, Cysteine protease ATG4B (Homo sapiens, UniProt Q9Y4P1); assay type: functional;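 further: Fluorescence-based dose-response confirmation assay measuring inhibition of ATG4B activity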
# T6 sequence (Q9Y4P1 whole entry): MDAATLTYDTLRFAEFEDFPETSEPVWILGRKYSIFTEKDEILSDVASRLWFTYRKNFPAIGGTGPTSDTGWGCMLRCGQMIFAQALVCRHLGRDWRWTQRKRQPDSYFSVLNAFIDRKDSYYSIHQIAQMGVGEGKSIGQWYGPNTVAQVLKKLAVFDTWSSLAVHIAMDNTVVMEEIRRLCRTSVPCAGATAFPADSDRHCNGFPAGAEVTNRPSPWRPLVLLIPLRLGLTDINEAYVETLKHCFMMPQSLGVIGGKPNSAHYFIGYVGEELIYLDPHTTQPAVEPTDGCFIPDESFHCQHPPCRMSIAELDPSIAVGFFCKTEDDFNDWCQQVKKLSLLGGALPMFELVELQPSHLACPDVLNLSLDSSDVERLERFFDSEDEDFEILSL
# [24] = tested on: Vero; assay: Vero cell cytotoxicity, cytotoxicity control for flavivirus capping enzyme inhibitors (AID 588742); assay type: functional; settings: Chlorocebus sabaeus
# [25] = molecular target: T7, RNA-binding protein pos-1 (Caenorhabditis elegans, UniProt G5EF15); assay: inhibitors of POS-1/mex-3 RNA binding, dose response, biochemical, fluorescence polarization (AID 1964);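 further: purified POS-1 fused to maltose binding protein made in E. coli; potency of compounds blocking POS-1 binding to fluorescent RNA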
# T7 sequence (G5EF15 whole entry): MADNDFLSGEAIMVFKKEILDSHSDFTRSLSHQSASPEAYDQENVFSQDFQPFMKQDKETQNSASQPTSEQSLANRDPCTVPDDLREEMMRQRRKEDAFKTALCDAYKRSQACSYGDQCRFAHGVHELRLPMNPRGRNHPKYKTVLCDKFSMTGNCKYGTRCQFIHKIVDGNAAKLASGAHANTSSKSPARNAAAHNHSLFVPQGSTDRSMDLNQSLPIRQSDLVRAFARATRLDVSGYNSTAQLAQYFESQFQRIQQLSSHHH
# [26] = molecular target: Heat shock 70 kDa protein 1A (Homo sapiens, UniProt P0DMV8); assay: Hsp70 inhibitors, SAR follow-up, biochemical, fluorescence polarization (AID 1072)
# [27] = molecular target: T5, Dual specificity protein phosphatase 6; assay type: functional
# [28] = tested on: HeLa; assay: HeLa cell cytotoxicity, dose response, cytotoxicity control, 24 h, cherry-picked samples (AID 504726); assay type: functional, cell-based; settings: Homo sapiens;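 further: potency for cytotoxicity as loss of luminescence signal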
# [29] = molecular target: T8, Zinc finger protein mex-5 (Caenorhabditis elegans, UniProt Q9XUB2); assay: MEX-5/TCR-2 RNA interaction inhibitors, dose response, biochemical, C. elegans, fluorescence polarization (AID 1960)
# T8 sequence (Q9XUB2 whole entry): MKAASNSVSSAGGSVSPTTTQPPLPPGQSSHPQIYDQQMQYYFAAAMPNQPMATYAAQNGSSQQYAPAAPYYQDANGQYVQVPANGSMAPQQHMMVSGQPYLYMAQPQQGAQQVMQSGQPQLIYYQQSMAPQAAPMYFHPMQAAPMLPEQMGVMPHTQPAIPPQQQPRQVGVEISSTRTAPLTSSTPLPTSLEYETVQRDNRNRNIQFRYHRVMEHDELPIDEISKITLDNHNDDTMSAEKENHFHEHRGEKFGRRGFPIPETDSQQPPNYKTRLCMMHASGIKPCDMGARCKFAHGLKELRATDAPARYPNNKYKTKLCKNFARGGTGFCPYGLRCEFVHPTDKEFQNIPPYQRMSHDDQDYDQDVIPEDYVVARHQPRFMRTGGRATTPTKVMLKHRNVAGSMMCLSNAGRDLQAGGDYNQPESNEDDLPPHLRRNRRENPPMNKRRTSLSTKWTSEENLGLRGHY
# Chain of Heat shock 70 kDa protein 1A (P0DMV8 whole entry): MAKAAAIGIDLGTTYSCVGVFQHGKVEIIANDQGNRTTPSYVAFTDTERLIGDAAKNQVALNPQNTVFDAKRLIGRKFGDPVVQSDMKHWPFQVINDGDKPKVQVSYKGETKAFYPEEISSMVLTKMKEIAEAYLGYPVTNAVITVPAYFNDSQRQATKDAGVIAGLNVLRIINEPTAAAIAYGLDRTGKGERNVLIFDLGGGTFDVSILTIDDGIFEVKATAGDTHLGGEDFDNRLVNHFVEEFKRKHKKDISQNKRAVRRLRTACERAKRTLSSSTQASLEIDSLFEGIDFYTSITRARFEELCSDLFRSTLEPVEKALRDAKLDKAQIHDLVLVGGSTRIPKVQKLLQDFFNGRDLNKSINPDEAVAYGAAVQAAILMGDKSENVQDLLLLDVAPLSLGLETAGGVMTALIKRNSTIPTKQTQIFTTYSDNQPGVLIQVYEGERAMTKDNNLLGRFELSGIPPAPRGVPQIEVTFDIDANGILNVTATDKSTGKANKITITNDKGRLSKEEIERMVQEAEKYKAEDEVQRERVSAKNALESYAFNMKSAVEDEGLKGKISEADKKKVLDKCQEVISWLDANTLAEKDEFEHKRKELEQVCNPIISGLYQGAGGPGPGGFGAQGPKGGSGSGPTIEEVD
# Chain of Hexokinase HKDC1 (Q2TB90 whole entry): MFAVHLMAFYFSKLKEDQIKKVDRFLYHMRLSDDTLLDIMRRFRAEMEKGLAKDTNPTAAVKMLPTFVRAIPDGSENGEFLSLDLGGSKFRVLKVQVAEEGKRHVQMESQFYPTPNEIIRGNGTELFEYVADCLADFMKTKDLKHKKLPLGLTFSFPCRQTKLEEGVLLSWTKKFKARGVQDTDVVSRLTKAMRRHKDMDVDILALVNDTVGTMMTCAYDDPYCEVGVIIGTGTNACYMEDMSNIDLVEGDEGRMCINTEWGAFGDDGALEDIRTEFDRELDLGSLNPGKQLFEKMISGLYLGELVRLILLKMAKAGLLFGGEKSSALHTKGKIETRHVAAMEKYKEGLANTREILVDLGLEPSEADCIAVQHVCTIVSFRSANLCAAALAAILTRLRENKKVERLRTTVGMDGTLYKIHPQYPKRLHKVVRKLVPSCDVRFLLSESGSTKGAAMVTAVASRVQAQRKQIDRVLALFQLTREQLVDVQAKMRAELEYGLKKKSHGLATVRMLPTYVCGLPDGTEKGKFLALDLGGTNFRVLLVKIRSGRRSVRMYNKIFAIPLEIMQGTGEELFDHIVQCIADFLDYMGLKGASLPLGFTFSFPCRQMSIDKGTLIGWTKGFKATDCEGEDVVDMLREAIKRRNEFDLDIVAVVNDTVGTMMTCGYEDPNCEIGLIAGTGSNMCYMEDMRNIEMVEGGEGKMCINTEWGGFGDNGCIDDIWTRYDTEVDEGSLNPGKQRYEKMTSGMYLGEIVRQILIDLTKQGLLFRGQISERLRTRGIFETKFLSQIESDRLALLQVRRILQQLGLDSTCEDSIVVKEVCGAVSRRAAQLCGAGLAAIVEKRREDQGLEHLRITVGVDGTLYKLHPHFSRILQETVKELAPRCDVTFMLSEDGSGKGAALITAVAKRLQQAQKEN
# Chain of Wee1-like protein kinase (P30291 whole entry): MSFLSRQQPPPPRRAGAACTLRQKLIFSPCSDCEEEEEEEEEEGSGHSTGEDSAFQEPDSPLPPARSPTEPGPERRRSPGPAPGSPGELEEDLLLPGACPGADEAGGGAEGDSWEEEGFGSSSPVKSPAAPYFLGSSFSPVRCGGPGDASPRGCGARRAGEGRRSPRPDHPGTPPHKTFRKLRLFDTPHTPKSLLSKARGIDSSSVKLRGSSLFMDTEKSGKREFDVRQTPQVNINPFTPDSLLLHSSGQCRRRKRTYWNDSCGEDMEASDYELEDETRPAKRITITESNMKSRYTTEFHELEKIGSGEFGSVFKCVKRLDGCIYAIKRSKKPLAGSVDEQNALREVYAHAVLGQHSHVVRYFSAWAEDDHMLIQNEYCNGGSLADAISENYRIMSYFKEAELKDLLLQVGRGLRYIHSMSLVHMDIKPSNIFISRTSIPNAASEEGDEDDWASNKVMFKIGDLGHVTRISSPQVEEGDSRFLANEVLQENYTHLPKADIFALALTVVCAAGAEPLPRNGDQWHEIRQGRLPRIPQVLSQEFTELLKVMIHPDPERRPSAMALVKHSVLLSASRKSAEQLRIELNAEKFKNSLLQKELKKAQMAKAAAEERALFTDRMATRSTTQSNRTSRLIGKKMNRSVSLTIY
# Chain of Cytochrome P450 2C19 (P33261 whole entry): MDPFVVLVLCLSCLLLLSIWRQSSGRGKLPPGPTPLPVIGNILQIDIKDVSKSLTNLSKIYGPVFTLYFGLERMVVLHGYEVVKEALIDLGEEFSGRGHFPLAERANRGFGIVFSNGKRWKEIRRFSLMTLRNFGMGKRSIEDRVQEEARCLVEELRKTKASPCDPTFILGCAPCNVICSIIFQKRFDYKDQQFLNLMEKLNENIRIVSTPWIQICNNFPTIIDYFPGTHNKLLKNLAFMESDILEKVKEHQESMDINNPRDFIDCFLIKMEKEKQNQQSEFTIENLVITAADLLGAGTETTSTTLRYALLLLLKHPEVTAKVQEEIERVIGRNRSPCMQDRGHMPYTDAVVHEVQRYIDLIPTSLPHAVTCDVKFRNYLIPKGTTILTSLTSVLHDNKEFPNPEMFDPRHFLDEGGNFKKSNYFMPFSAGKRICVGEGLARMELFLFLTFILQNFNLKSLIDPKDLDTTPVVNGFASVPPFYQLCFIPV
# Chain of Glyceraldehyde-3-phosphate dehydrogenase (P04406 whole entry): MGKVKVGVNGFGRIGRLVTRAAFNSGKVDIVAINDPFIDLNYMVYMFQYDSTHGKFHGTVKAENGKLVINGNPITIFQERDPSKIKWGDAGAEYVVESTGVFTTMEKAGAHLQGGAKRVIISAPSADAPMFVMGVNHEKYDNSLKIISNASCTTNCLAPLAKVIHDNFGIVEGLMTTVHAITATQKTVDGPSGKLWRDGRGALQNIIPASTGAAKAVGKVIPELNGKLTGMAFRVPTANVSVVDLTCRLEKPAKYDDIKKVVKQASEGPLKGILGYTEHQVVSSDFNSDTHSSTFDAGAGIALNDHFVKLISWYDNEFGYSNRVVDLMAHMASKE
# Chain of Cyclin-dependent kinase 5/CDK5 activator 1 (Q00535 whole entry): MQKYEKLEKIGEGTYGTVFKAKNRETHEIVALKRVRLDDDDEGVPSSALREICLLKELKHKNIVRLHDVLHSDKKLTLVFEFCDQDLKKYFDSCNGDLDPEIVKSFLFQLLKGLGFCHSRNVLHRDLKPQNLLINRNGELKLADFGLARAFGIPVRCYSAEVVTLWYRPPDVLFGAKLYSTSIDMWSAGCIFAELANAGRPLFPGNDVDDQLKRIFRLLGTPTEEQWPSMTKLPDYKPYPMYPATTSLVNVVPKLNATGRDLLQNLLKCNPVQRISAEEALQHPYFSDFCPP
# Chain of Cyclin-dependent kinase 5/CDK5 activator 1 (Q15078 whole entry, further chain): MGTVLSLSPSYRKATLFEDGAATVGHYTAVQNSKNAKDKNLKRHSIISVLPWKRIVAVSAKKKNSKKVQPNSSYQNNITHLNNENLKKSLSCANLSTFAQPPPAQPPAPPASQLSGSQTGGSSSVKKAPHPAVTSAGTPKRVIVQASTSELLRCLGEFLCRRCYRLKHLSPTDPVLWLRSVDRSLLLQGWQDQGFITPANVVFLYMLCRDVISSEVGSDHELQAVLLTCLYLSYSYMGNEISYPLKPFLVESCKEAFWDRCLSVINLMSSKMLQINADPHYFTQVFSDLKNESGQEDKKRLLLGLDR
# Chain of Neurotensin receptor type 1 (P30989 whole entry): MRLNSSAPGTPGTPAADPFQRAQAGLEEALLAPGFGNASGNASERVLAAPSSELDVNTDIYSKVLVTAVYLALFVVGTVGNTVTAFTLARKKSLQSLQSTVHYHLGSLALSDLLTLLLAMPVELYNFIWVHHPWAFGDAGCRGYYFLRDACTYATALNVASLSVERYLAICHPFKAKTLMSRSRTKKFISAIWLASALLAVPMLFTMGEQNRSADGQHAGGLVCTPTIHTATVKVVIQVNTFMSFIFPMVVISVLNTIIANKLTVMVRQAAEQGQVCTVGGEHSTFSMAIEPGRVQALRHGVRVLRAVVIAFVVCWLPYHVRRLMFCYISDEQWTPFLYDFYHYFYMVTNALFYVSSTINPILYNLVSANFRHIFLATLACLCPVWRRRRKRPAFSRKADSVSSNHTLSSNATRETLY
# Chain of Phospholipase A2 (P04054 whole entry): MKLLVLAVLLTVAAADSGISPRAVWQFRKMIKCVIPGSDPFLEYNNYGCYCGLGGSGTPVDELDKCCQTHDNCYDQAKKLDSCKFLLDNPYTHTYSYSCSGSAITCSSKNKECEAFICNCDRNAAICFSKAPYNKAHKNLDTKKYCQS
# Chain of Photoreceptor-specific nuclear receptor (Q9Y5X4 whole entry): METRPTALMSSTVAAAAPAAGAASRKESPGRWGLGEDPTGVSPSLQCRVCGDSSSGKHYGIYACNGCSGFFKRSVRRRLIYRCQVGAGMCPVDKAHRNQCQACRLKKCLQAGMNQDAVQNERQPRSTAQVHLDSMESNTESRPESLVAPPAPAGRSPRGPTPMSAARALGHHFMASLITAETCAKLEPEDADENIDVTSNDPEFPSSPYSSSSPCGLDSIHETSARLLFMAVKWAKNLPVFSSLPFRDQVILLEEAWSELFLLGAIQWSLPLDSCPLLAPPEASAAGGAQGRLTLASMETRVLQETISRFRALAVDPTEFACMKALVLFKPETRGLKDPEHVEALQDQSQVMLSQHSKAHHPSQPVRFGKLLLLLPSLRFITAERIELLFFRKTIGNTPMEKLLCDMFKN
smiles,measurement,setting,value
CCN1C(=O)/C(=C/N(C(C)=O)c2ccccc2)N(c2ccccc2)C1=S,EC50,[1],18 µM (active)
same,IC50,[2],> 50 µM (not active)
Cc1cc(C)n2nc(SCc3nnc(SCc4ccccc4Cl)s3)nc2n1,IC50,[3],9.87 µM (not active)
same,IC50,[4],18.8 µM (active)
Cn1nc(CC(=O)NC2CCCCCCCCCCC2)c2ccccc2c1=O,EC50,[5],65 µM (not active)
CN(C)CCN1C(=O)C(O)=C(C(=O)c2cc3ccccc3o2)C1c1cccc(Br)c1 (centres undefined),IC50,[6],2.25 µM (active)
same,IC50,[7],> 39.8 µM (not active)
same,EC50,[8],> 79.4 µM (not active)
same,EC50,[9],> 79.4 µM (not active)
same,EC50,[10],> 79.4 µM (inactive)
same,AC50,[11],31.6 µM (inconclusive)
CNS(=O)(=O)c1ccc2c3c(cccc13)C(=O)N2,AC50,[12],32.6 µM (active)
same,IC50,[13],1.6 µM (active)
Cc1cccc(NC(=O)N2CCCN(Cc3ccccc3F)C2)c1,IC50,[14],> 150 µM (active)
Cc1ccc(NC(=O)COc2cc(=O)n(C)c3ccccc23)nc1,EC50,[15],> 49.7 µM (inactive)
same,EC50,[16],> 49.7 µM (inactive)
O=C(O)C1Nc2ccc(Br)cc2C2C=CCC12 (centres undefined),IC50,[17],1.63 µM (active)
same,IC50,[18],28.7 µM (active)
same,IC50,[19],8.24 µM (active)
same,AC50,[20],29.2 µM (active)
same,IC50,[21],> 100 µM (not active)
same,IC50,[22],12.8 µM (active)
same,IC50,[23],3.94 µM (active)
same,CC50,[24],> 40 µM (active)
same,EC50,[25],9.81 µM (active)
same,IC50,[26],3.24 µM (active)
same,IC50,[27],12.3 µM (active)
same,AC50,[28],106 µM (active)
same,EC50,[29],6.32 µM (active)
